{
  "source": "paper PMC5218480",
  "about": "(PLoS ONE, 2017)",
  "system": "MV-4-11 cells",
  "assay": "Gene expression microarray analysis (Affymetrix PrimeView) and GSEA",
  "type": "cell-based, human",
  "design": "RFU PODN (11730768_x_at) / Fold change /veh PODN (11730768_x_at) / RFU LINC00158 (11744669_a_at) / Fold change /veh LINC00158 (11744669_a_at) / RFU DUSP10 (11751237_a_at) / Fold change /veh DUSP10 (11751237_a_at) / RFU ID3 (11757404_x_at) / Fold change /veh ID3 (11757404_x_at) / RFU PLEKHG5 (11737974_s_at) / Fold change /veh PLEKHG5 (11737974_s_at) / RFU LRRC4B (11730491_at) / Fold change /veh LRRC4B (11730491_at) / RFU GIMAP4 (11747438_a_at) / Fold change /veh GIMAP4 (11747438_a_at) / RFU KRT8 (11758183_x_at) / Fold change /veh KRT8 (11758183_x_at) / RFU CNN1 (11734310_a_at) / Fold change /veh CNN1 (11734310_a_at) / RFU VPS37D (11726825_at) / Fold change /veh VPS37D (11726825_at) / RFU C10orf10 (11716522_x_at) / Fold change /veh C10orf10 (11716522_x_at) / RFU KIR2DL2 /// KIR2DL4 /// KIR2DL5A /// KIR2DL5B /// KIR2DS1 /// KIR2DS2 /// KIR2DS3 /// KIR2DS4 /// KIR3DL3 /// KIR3DL3 /// KIR3DS1 (11738374_at) / Fold change /veh KIR2DL2 /// KIR2DL4 /// KIR2DL5A /// KIR2DL5B /// KIR2DS1 /// KIR2DS2 /// KIR2DS3 /// KIR2DS4 /// KIR3DL3 /// KIR3DL3 /// KIR3DS1 (11738374_at) / RFU C1QL1 (11718748_at) / Fold change /veh C1QL1 (11718748_at) / RFU TMPRSS4 (11747572_a_at) / Fold change /veh TMPRSS4 (11747572_a_at) / RFU HAMP (11756126_x_at) / Fold change /veh HAMP (11756126_x_at) / RFU RNFT2 (11725882_a_at) / Fold change /veh RNFT2 (11725882_a_at) / RFU NR4A2 (11747474_a_at) / Fold change /veh NR4A2 (11747474_a_at) / RFU ABCC12 (11746883_a_at) / Fold change /veh ABCC12 (11746883_a_at) / RFU TMEM136 (11760407_x_at) / Fold change /veh TMEM136 (11760407_x_at) / RFU CLDN22 /// WWC2 (11732394_at) / Fold change /veh CLDN22 /// WWC2 (11732394_at) / RFU HLA-DPB1 (11760878_x_at) / Fold change /veh HLA-DPB1 (11760878_x_at) / RFU SPINT1 (11716480_a_at) / Fold change /veh SPINT1 (11716480_a_at) / RFU GAP43 (11754022_s_at) / Fold change /veh GAP43 (11754022_s_at) / RFU A4GNT (11735810_at) / Fold change /veh A4GNT (11735810_at) / RFU PRB3 (11715151_x_at) / Fold change /veh PRB3 (11715151_x_at) / RFU TUBB4B (11761932_at) / Fold change /veh TUBB4B (11761932_at) / RFU CAPN14 (11732068_a_at) / Fold change /veh CAPN14 (11732068_a_at) / RFU TMCC2 (11721928_a_at) / Fold change /veh TMCC2 (11721928_a_at) / RFU IRGQ (11745062_a_at) / Fold change /veh IRGQ (11745062_a_at) / RFU FAM174B (11720279_a_at) / Fold change /veh FAM174B (11720279_a_at) / RFU TMPRSS4 (11748680_a_at) / Fold change /veh TMPRSS4 (11748680_a_at) / RFU FAM212B (11763350_a_at) / Fold change /veh FAM212B (11763350_a_at) / RFU PLEKHG5 (11743358_a_at) / Fold change /veh PLEKHG5 (11743358_a_at) / RFU ZSCAN30 (11745921_a_at) / Fold change /veh ZSCAN30 (11745921_a_at) / RFU CMKLR1 (11741424_a_at) / Fold change /veh CMKLR1 (11741424_a_at) / RFU LOC101060620 /// MAPK8IP1 (11723275_at) / Fold change /veh LOC101060620 /// MAPK8IP1 (11723275_at) / RFU SPTSSB (11747773_x_at) / Fold change /veh SPTSSB (11747773_x_at) / RFU PRSS12 (11739890_at) / Fold change /veh PRSS12 (11739890_at) / RFU BIN1 (11741810_x_at) / Fold change /veh BIN1 (11741810_x_at) / RFU WNT11 (11732464_a_at) / Fold change /veh WNT11 (11732464_a_at) / RFU C10orf10 (11716521_a_at) / Fold change /veh C10orf10 (11716521_a_at) / RFU C5orf56 (11738089_at) / Fold change /veh C5orf56 (11738089_at) / RFU CYB561 (11721691_x_at) / Fold change /veh CYB561 (11721691_x_at) / RFU ANKRD19P (11752326_a_at) / Fold change /veh ANKRD19P (11752326_a_at) / RFU OR2T12 /// OR2T33 /// OR2T8 (11738714_s_at) / Fold change /veh OR2T12 /// OR2T33 /// OR2T8 (11738714_s_at) / RFU VCAN (11748164_a_at) / Fold change /veh VCAN (11748164_a_at) / RFU JSRP1 (11732532_at) / Fold change /veh JSRP1 (11732532_at) / RFU KRTAP10-11 (11738290_x_at) / Fold change /veh KRTAP10-11 (11738290_x_at) / RFU MYO3A (11730013_a_at) / Fold change /veh MYO3A (11730013_a_at) / RFU EBF3 (11725865_a_at) / Fold change /veh EBF3 (11725865_a_at) / RFU CAMK2N1 (11719241_x_at) / Fold change /veh CAMK2N1 (11719241_x_at) / RFU C5orf56 (11738088_a_at) / Fold change /veh C5orf56 (11738088_a_at) / RFU OLFML3 (11715873_a_at) / Fold change /veh OLFML3 (11715873_a_at) / RFU LOC100653217 /// NTM (11731650_a_at) / Fold change /veh LOC100653217 /// NTM (11731650_a_at) / RFU MAPK11 (11762145_a_at) / Fold change /veh MAPK11 (11762145_a_at) / RFU FIZ1 (11724087_x_at) / Fold change /veh FIZ1 (11724087_x_at) / RFU OASL (11726364_x_at) / Fold change /veh OASL (11726364_x_at) / RFU SOX15 (11748057_x_at) / Fold change /veh SOX15 (11748057_x_at) / RFU CD79A (11719716_a_at) / Fold change /veh CD79A (11719716_a_at) / RFU HIST1H1D (11736915_at) / Fold change /veh HIST1H1D (11736915_at) / RFU CASKIN2 (11723855_a_at) / Fold change /veh CASKIN2 (11723855_a_at) / RFU LOC730098 (11760151_x_at) / Fold change /veh LOC730098 (11760151_x_at) / RFU OR4N2 (11742367_at) / Fold change /veh OR4N2 (11742367_at) / RFU PRRT2 (11749266_a_at) / Fold change /veh PRRT2 (11749266_a_at) / RFU SNX32 (11753110_a_at) / Fold change /veh SNX32 (11753110_a_at) / RFU CDHR5 (11726645_a_at) / Fold change /veh CDHR5 (11726645_a_at) / RFU RCAN1 (11760418_a_at) / Fold change /veh RCAN1 (11760418_a_at) / RFU FAM167A (11723789_a_at) / Fold change /veh FAM167A (11723789_a_at) / RFU FAM26E (11764081_at) / Fold change /veh FAM26E (11764081_at) / RFU ISYNA1 (11749810_s_at) / Fold change /veh ISYNA1 (11749810_s_at) / RFU ACY1 (11761880_at) / Fold change /veh ACY1 (11761880_at) / RFU 11764098_at / Fold change /veh 11764098_at / RFU SAMD14 (11745864_x_at) / Fold change /veh SAMD14 (11745864_x_at) / RFU NPB (11741838_a_at) / Fold change /veh NPB (11741838_a_at) / RFU TMPRSS6 (11731388_a_at) / Fold change /veh TMPRSS6 (11731388_a_at) / RFU KRTAP10-2 (11738614_at) / Fold change /veh KRTAP10-2 (11738614_at) / RFU ARHGAP8 /// PRR5-ARHGAP8 (11727945_x_at) / Fold change /veh ARHGAP8 /// PRR5-ARHGAP8 (11727945_x_at) / RFU KRTAP5-7 /// NADSYN1 (11734609_at) / Fold change /veh KRTAP5-7 /// NADSYN1 (11734609_at) / RFU RASL12 (11751679_a_at) / Fold change /veh RASL12 (11751679_a_at) / RFU CDKN2B (11736163_a_at) / Fold change /veh CDKN2B (11736163_a_at) / RFU PRF1 (11729649_at) / Fold change /veh PRF1 (11729649_at) / RFU, ZNF638 /// ZNF638-IT1 / Fold change vs veh, ZNF638 /// ZNF638-IT1 / RFU, PANK3 / Fold change vs veh, PANK3 / RFU, SH3YL1 / Fold change vs veh, SH3YL1 / RFU, ZEB2 / Fold change vs veh, ZEB2 / RFU, NRIP1 / Fold change vs veh, NRIP1 / RFU, PTTG1IP / Fold change vs veh, PTTG1IP / RFU, CAPN2 / Fold change vs veh, CAPN2 / RFU, MED14 / Fold change vs veh, MED14 / RFU, SNORA58 / Fold change vs veh, SNORA58 / RFU, C1orf63 / Fold change vs veh, C1orf63 / RFU, LRRFIP1 / Fold change vs veh, LRRFIP1 / RFU, NDUFAF7 / Fold change vs veh, NDUFAF7 / RFU, SLC12A2 / Fold change vs veh, SLC12A2 / RFU, IBTK / Fold change vs veh, IBTK / RFU, ESF1 / Fold change vs veh, ESF1 / Fold change vs veh, TMEM50B / RFU, TAOK1 / Fold change vs veh, TAOK1 / RFU, ACBD3 / Fold change vs veh, ACBD3 / RFU, TMA16 / Fold change vs veh, TMA16 / RFU, RWDD3 / Fold change vs veh, RWDD3 / RFU, BCAT1 / Fold change vs veh, BCAT1 / RFU, EDEM3 / Fold change vs veh, EDEM3 / RFU, TMEM33 / Fold change vs veh, TMEM33 / RFU, WDR75 / Fold change vs veh, WDR75 / RFU, AHCTF1 / Fold change vs veh, AHCTF1 / RFU, TFRC / Fold change vs veh, TFRC / RFU, ZDHHC17 / Fold change vs veh, ZDHHC17 / RFU, NOM1 / Fold change vs veh, NOM1 / RFU, ARL8B / Fold change vs veh, ARL8B / RFU, ZBTB11 / Fold change vs veh, ZBTB11 / RFU, TAMM41 / Fold change vs veh, TAMM41 / RFU, KIAA1704 /// LOC100996395 / Fold change vs veh, KIAA1704 /// LOC100996395 / RFU, ING1 / Fold change vs veh, ING1 / RFU, TRMT61B / Fold change vs veh, TRMT61B / RFU, FUBP3 / Fold change vs veh, FUBP3 / RFU, TP53 / Fold change vs veh, TP53 / RFU, TNKS2 / Fold change vs veh, TNKS2 / RFU, ZFP14 / Fold change vs veh, ZFP14 / RFU, ACTR2 / Fold change vs veh, ACTR2 / RFU, PPP3R1 / Fold change vs veh, PPP3R1 / RFU, PIK3R1 / Fold change vs veh, PIK3R1 / RFU, HNRNPA1 / Fold change vs veh, HNRNPA1 / RFU, RNF170 / Fold change vs veh, RNF170 / RFU, ZNF28 / Fold change vs veh, ZNF28 / RFU, RNGTT / Fold change vs veh, RNGTT / RFU, OGT / Fold change vs veh, OGT / RFU, BRD1 / Fold change vs veh, BRD1 / RFU, MARS / Fold change vs veh, MARS / RFU, ZNF655 / Fold change vs veh, ZNF655 / RFU, FAHD1 / Fold change vs veh, FAHD1 / RFU, BDP1 / Fold change vs veh, BDP1 / RFU, LRRCC1 / Fold change vs veh, LRRCC1 / RFU, ARID1A / Fold change vs veh, ARID1A / RFU, ZNF146 / Fold change vs veh, ZNF146 / RFU, ZNF330 / Fold change vs veh, ZNF330 / RFU, GPN3 / Fold change vs veh, GPN3 / RFU, C9orf123 / Fold change vs veh, C9orf123 / RFU, N4BP2L2 / Fold change vs veh, N4BP2L2 / RFU, ARFIP1 / Fold change vs veh, ARFIP1 / RFU, FAM179B / Fold change vs veh, FAM179B / RFU, BCL10 / Fold change vs veh, BCL10 / RFU, UHRF1BP1L / Fold change vs veh, UHRF1BP1L / RFU, BET1 / Fold change vs veh, BET1 / RFU, CNOT2 / Fold change vs veh, CNOT2 / RFU, ZNF268 / Fold change vs veh, ZNF268 / Fold change vs veh, ZNF507 / RFU, DGCR2 / Fold change vs veh, DGCR2 / RFU, WDSUB1 / Fold change vs veh, WDSUB1 / Fold change vs veh, HSP90B1 /// MIR3652 / RFU, ADSS / Fold change vs veh, ADSS / RFU, GK / Fold change vs veh, GK / RFU, ZNF148 / Fold change vs veh, ZNF148 / RFU, TAF9 / Fold change vs veh, TAF9 / RFU, SLC1A5 / Fold change vs veh, SLC1A5 / RFU, SLMO2 / Fold change vs veh, SLMO2 / RFU, ABCC4 / Fold change vs veh, ABCC4 / RFU, LOC101060439 /// RAP1B / Fold change vs veh, LOC101060439 /// RAP1B / RFU, RFX7 / Fold change vs veh, RFX7 / RFU, GTPBP10 / Fold change vs veh, GTPBP10 / RFU, CNEP1R1 / Fold change vs veh, CNEP1R1 / RFU, BIVM-ERCC5 /// ERCC5 / Fold change vs veh, BIVM-ERCC5 /// ERCC5 / RFU, ILF3 / Fold change vs veh, ILF3 / RFU 11762660_at / Fold change /veh 11762660_at / RFU VCAN (11757783_s_at) / Fold change /veh VCAN (11757783_s_at) / RFU DDX43 (11728927_at) / Fold change /veh DDX43 (11728927_at) / RFU KRT8 (11758188_x_at) / Fold change /veh KRT8 (11758188_x_at) / RFU NKD1 (11759106_at) / Fold change /veh NKD1 (11759106_at) / RFU SRD5A1 (11742802_a_at) / Fold change /veh SRD5A1 (11742802_a_at) / RFU TPSAB1 /// TPSB2 (11721975_s_at) / Fold change /veh TPSAB1 /// TPSB2 (11721975_s_at) / RFU GSTM3 (11746129_a_at) / Fold change /veh GSTM3 (11746129_a_at) / RFU IL23R (11737362_x_at) / Fold change /veh IL23R (11737362_x_at) / RFU TMEM51 (11727254_a_at) / Fold change /veh TMEM51 (11727254_a_at) / RFU PIWIL2 (11732686_x_at) / Fold change /veh PIWIL2 (11732686_x_at) / RFU ORM1 (11744905_x_at) / Fold change /veh ORM1 (11744905_x_at) / RFU CCDC152 (11743942_at) / Fold change /veh CCDC152 (11743942_at) / RFU ECM1 (11717891_a_at) / Fold change /veh ECM1 (11717891_a_at) / RFU IL23R (11748794_a_at) / Fold change /veh IL23R (11748794_a_at) / RFU TNFAIP8L3 (11732012_x_at) / Fold change /veh TNFAIP8L3 (11732012_x_at) / RFU MBOAT4 (11741988_at) / Fold change /veh MBOAT4 (11741988_at) / RFU 11764193_at / Fold change /veh 11764193_at / RFU TMEM53 (11763286_at) / Fold change /veh TMEM53 (11763286_at) / RFU MAGEB2 (11727129_at) / Fold change /veh MAGEB2 (11727129_at) / RFU TMEM200A (11744735_a_at) / Fold change /veh TMEM200A (11744735_a_at) / RFU CCDC152 (11751479_a_at) / Fold change /veh CCDC152 (11751479_a_at) / RFU FAM211A (11726209_a_at) / Fold change /veh FAM211A (11726209_a_at) / RFU RGS16 (11746705_a_at) / Fold change /veh RGS16 (11746705_a_at) / RFU VCAN (11755009_s_at) / Fold change /veh VCAN (11755009_s_at) / RFU RHOB (11743442_s_at) / Fold change /veh RHOB (11743442_s_at) / RFU RGS16 (11720943_a_at) / Fold change /veh RGS16 (11720943_a_at) / RFU RGS16 (11720944_at) / Fold change /veh RGS16 (11720944_at) / RFU, VPS4B / Fold change vs veh, VPS4B / RFU, CREB1 / Fold change vs veh, CREB1 / RFU, DNAJC13 / Fold change vs veh, DNAJC13 / RFU, GNAQ / Fold change vs veh, GNAQ / RFU, CDK5R1 / Fold change vs veh, CDK5R1 / RFU, ZRANB3 / Fold change vs veh, ZRANB3 / RFU, CUL4A / Fold change vs veh, CUL4A / RFU, CCNY / Fold change vs veh, CCNY / RFU, UFL1 / Fold change vs veh, UFL1 / RFU, COG3 / Fold change vs veh, COG3 / RFU, DIAPH2 / Fold change vs veh, DIAPH2 / RFU, SKA2 / Fold change vs veh, SKA2 / RFU, AFF3 / Fold change vs veh, AFF3 / RFU, LMF1 / Fold change vs veh, LMF1 / RFU, IPO11 / Fold change vs veh, IPO11 / RFU, DFFB / Fold change vs veh, DFFB / RFU, FOXP1 / Fold change vs veh, FOXP1 / RFU, CARD8 / Fold change vs veh, CARD8 / RFU, STRN3 / Fold change vs veh, STRN3 / RFU, ADK / Fold change vs veh, ADK / RFU, RASSF2 / Fold change vs veh, RASSF2 / RFU, WIPF1 / Fold change vs veh, WIPF1 / RFU, LARP1B / Fold change vs veh, LARP1B / RFU, RASA1 / Fold change vs veh, RASA1 / RFU, RB1 / Fold change vs veh, RB1 / RFU, PPFIA1 / Fold change vs veh, PPFIA1 / RFU, MAT2A / Fold change vs veh, MAT2A / RFU, CCT5 / Fold change vs veh, CCT5 / RFU, WDR92 / Fold change vs veh, WDR92 / RFU, CUX1 / Fold change vs veh, CUX1 / RFU, TTC7A / Fold change vs veh, TTC7A / RFU, TMEM135 / Fold change vs veh, TMEM135 / RFU, DEPTOR / Fold change vs veh, DEPTOR / RFU, CPM / Fold change vs veh, CPM / RFU, DNAJB6 / Fold change vs veh, DNAJB6 / RFU, CACNA2D3 / Fold change vs veh, CACNA2D3 / RFU, DTX4 / Fold change vs veh, DTX4 / RFU, TFCP2 / Fold change vs veh, TFCP2 / RFU, GMCL1 /// GMCL1P1 / Fold change vs veh, GMCL1 /// GMCL1P1 / RFU, AEBP2 / Fold change vs veh, AEBP2 / RFU, SNHG1 /// SNORD22 /// SNORD25 /// SNORD26 /// SNORD27 /// SNORD28 /// SNORD29 /// SNORD31 / Fold change vs veh, SNHG1 /// SNORD22 /// SNORD25 /// SNORD26 /// SNORD27 /// SNORD28 /// SNORD29 /// SNORD31 / Fold change (Aza/veh), C12orf56 (ProbeSet 11735607_a_at) / Fold change (ACY-1035/veh), C12orf56 (ProbeSet 11735607_a_at) / Fold change (Aza/veh), FGFR1OP (ProbeSet 11751329_s_at) / Fold change (ACY-1035/veh), FGFR1OP (ProbeSet 11751329_s_at) / Fold change (Aza/veh), VPS36 (ProbeSet 11739960_a_at) / Fold change (ACY-1035/veh), VPS36 (ProbeSet 11739960_a_at) / RFU SYPL1 (11715823_x_at) / Fold change /veh SYPL1 (11715823_x_at) / RFU IGFBP7 (11715501_s_at) / Fold change /veh IGFBP7 (11715501_s_at) / RFU REEP3 (11722064_at) / Fold change /veh REEP3 (11722064_at) / RFU IGLL1 (11728026_x_at) / Fold change /veh IGLL1 (11728026_x_at): dose or concentration left out as unconfirmed",
  "settings": "ProbeSet 11752001_a_at; LIST D",
  "data": [
    {"smiles": "Nc1ccc(-c2cccs2)cc1NC(=O)c1ccc2c(c1)cc(C1CC1)n2CCN1CCOCC1", "note": "[ACY-1035]", "values": [
      {"measurement": "Fold change vs veh, CUL4A", "value": 0.87}
    ]}
  ]
}
